{"source": "patent US20240083949A1", "about": "“CELL PENETRATING PEPTIDE COMPOSITIONS AND METHODS THEREOF” (The Regents of the University of California, priority 2022, published 2024)", "key": {"FIBCD1-KO U87 cell line": {"tested_on": "FIBCD1-KO U87 cell line", "conditions": "500 nM, FIBCD1-KO U87 cells, crystal violet", "excerpt": "(§1) Crystal violet staining is a cell viability test used to determine if a drug or molecule is killing cells based on the difference in cell number from the untreated control. U87 cells are an adherent cell line if they are alive and healthy, they attach securely to the bottom of the petri dish. Herein we passaged U87 cells into a 96-well plate and made quadruplets for each concentration of the drug we planned to use. After staining the cells that remained after treatment with both the drug and the EPP6-GEM conjugate, the cells were then photographed with a cell phone and compared to the control wells (FIGS. 12A-13C)."}, "U87 cells [1]": {"tested_on": "U87 cells", "conditions": "500 nM, crystal violet", "excerpt": "as §1"}, "U87": {"tested_on": "U87", "test": "Confocal microscopy for internalization of EPP6-GEM", "assay_type": "cell-based, human", "conditions": "500 nM, U87 cells", "procedure": "After purification of this conjugate, EPP6-GEM was dissolved in DMSO and diluted to 500 nM in full media (DMEM) and administered to the immortalized glioblastoma cell line U87. These cells were monitored using Confocal Microscopy for internalization of the conjugate. FIGS. 11A-11C show three images of U87 cells with different combinations of dyes internalized. […] EPP6-GEM has been outfitted with a Rhodamine B dye. […] Cell viability experiments were carried out to determine if the conjugate can kill cells at a similar rate to the free drug or at an improved rate."}, "U87 cells [2]": {"tested_on": "U87 cells", "test": "Colocalization of RB-EPP6 with mEmerald-caveolin and mEmerald-clathrin", "assay_type": "cell-based, human", "conditions": "transfected U87 cells, confocal", "procedure": "(§2) Confocal Imaging experiments. To image the cells, a Zeiss 880 inverted confocal laser scanning microscope (Carl Zeiss, Germany) was used. Image acquisition and analyses were carried out using the manufacturer's software (ZEN, Carl Zeiss). Quantification of fluorescence intensity in single cells was performed using Fiji software.\n(§3) Plasmid transfection assays. 300 k U87 cells were seeded in the 35×10 mm dish for overnight culture. Plasmids (caveolin, 75 ng; clathrin, 100 ng; rab5, 100 ng; rab7a, 10 ng; caveolin-1 CRISPR/Cas9 KO, 3 μg; FIBCD1 CRISPR/Cas9 KO, 3 ug; Control CRISPR, 3 ug) were diluted with Plasmid Transfection Medium (sc-108062) to 50 μl. UltraCruz Transfection Reagent (Santa Cruz Biotechnology) was also diluted with Plasmid Transfection Medium to 50 μl. Plasmids and transfection reagent were mixed well and kept at room temperature for 20 min. Replace the cells with PS free medium and add the mixture to the cells, culture for another 24 h."}, "Lipid binding assay": {"test": "Lipid binding assay", "conditions": "liposomes, RB-EPP6 1 nM to 10 μM", "procedure": "Lipid binding assay. 95% egg PC, 5% nitrobenzoxadiazole (NBD) were added to 1% cholesterol, PE, PG, ganglioside, SM and PA to make liposomes individually. RB-EPP 6 was diluted with HEPES buffer to different concentrations, ranging from 1 nM to 10 μM. For each lipid type, 400 μl liposomes of 50 μg/ml were added to 400 μl of each RB-EPP 6 concentration. The mixture was incubated at room temperature for 15 min. 80 μl of each condition was collected to measure the fluorescence intensity of NBD suing the Synergy H1 microplate reader."}, "U87 cells [3]": {"tested_on": "U87 cells", "test": "Temperature control comparison experiment (RB-EPP6 uptake at 37° C. and 4° C.)", "assay_type": "cell-based, human", "conditions": "500 nM, 1 h", "procedure": "as §2\nTemperature control comparison experiment. U87 cells were kept in the cold room for half an hour before incubated with RB-EPP 6. After that, cells were incubated with RB-EPP 6 at 500 nM at 4° C. Cells in the control group were incubated at 37° C. After 1 h, cells were wash with fresh medium once respectively before confocal imaging."}, "U87 cells [4]": {"tested_on": "U87 cells", "test": "RB-EPP6 uptake after caveolin CRISPR knockout", "assay_type": "cell-based, human", "conditions": "data not shown", "procedure": "as §3"}, "MDCK cells": {"tested_on": "MDCK cells", "conditions": "MDCK monolayer, trans-well, three hours"}, "[5]": {"test": "Octanol-water partition assay", "assay_type": "physicochemical", "procedure": "Octanol-water partition assay. For each RB-EPP, pre-mix 250 μl of octanol with 250 μl of water in a 1.5 ml centrifuge tube. 2 μl of RB-EPP was added to the solution at the concentration of 500 μM. After vortex the mixture, centrifuge at the highest speed for 10 min to separate the octanol and water phases. Samples were collected from both phases and quantified by the Analytical HPLC separately."}, "U87 cells [6]": {"tested_on": "U87 cells", "test": "Confocal imaging of Dye-EPP uptake in U87 cells", "assay_type": "cell-based, human", "conditions": "RB-tagged EPPs, U87 cells, confocal imaging, ranking among EPP1-7", "procedure": "as §2\nDye-EPP incubation. For general incubation, 300 k U87 cells were seeded in full medium containing 10% FBS and 1% PS in a 35×10 mm petri dish. The cells were incubated overnight in full medium. Stock solution of Dye-EPPs were made in DMSO to reach a concentration of 500 μM. Fresh cell culture medium was used to dilute the stock solution to 500 nM and replace the old medium on day 2. Cells were incubated with RB-EPPs for different time periods, followed by a one-time wash with phenol-free fresh culture medium before measurements.\nConcentration gradient experiment. U87 Cells were incubated with RB-EPP 6 at different concentrations (20 nM, 200 nM, 2 μM, 20 μM, 50 μM and 100 μM). After wash with fresh medium once cells were examined by confocal imaging."}, "[7]": {"conditions": "MDCK, MDCK monolayer, trans-well, three hours of incubation, 10 μM"}, "U87 cells [8]": {"tested_on": "U87 cells", "test": "Intracellular trafficking of EPP6 conjugates (endosome markers, organelle trackers, time series, EB staining)", "assay_type": "cell-based, human", "procedure": "Time series experiment. U87 Cells were incubated with RB-EPP 6 at 500 nM for 1 h. After wash with fresh medium once, the cells were kept in the 5% CO2 incubator at 37° C. for different time durations (1 h, 2 h, 6 h and 24 h) before confocal imaging.\nOrganelle tracker colocalization experiment. Stock solution of trackers for mitochondria, lysosome and ER were diluted with cell culture medium into 100 nM, 500 nM and 4 μM respectively. RB-EPP 6 was added into each working solution at 500 nM. U87 cells were incubated with the both trackers and RB-EPP 6 for 1 h and then washed once before confocal imaging.\nas §3\nEthidium bromide (EB) staining. U87 cells were incubated with 2 μg/ml EB with or without the conjugation of EPP6 for an hour, 3 hours and 6 hours respectively. After 1 h and the cells were washed with fresh phenol-free media once before confocal imaging.\nStatistical analysis. Pearson's correlation coefficient was used to calculate correlation between RB and tracker channels in the organelle tracker experiment. Graph generation and statistical analyses were performed using Fiji software."}}, "note": "Entries after “also recorded” stand apart in the source; their conditions may differ. Starred links: 1 amine or outer side, 2 acyl side, 3 side chain; linkers in the order of their positions; H or OH if unused. Positions of bridges follow the written chain, without caps; N, C: chain ends. Non-standard residues stand in square brackets, D forms with d. Residues, ends and D or L forms follow the SMILES beside them. Triazole bridges read from a SMILES are 1,4-linked. ξ: configuration not given here. *: point of attachment. RhodamineB = CCN(CC)c1ccc2c(-c3ccccc3C(=O)*)c3ccc(=[N+](CC)CC)cc-3oc2c1; X1 = Nc1ccn([C@@H]2O[C@H](COC(=O)CCC(=O)*)[C@@H](O)C2(F)F)c(=O)n1; Lys(N3) = [N-]=[N+]=NCCCC[C@H](N)C(=O)O; ξLys(N3) = [N-]=[N+]=NCCCCC(N)C(=O)O; NMeGABA = CN(CCCC(=O)[*:2])[*:1]; dPra = C#CC[C@@H](N)C(=O)O; Pra = C#CC[C@H](N)C(=O)O", "data": [{"compound": "CCN(CC)c1ccc2c(-c3ccccc3C(=O)N(C)CCCC(=O)N[C@@H](CCCCNC(=O)CCC(=O)OC[C@H]3O[C@@H](n4ccc(N)nc4=O)C(F)(F)[C@@H]3O)C(=O)N[C@@H]3Cc4cn(nn4)CCCCC(C(N)=O)NC(=O)[C@H](CO)NC(=O)[C@H](Cc4ccc(O)cc4)NC(=O)[C@H](Cc4ccc(O)cc4)NC(=O)[C@H](CO)NC(=O)[C@H](Cc4ccc(O)cc4)NC3=O)c3ccc(=[N+](CC)CC)cc-3oc2c1", "note": "(some centres unmarked) [EPP6-GEM] (RhodamineB-[NMeGABA]K(X1)[dPra]YSYYS[ξLys(N3)]-NH2; triazole 3-9)", "values": [{"measurement": "cell killing compared with free drug", "setting": "FIBCD1-KO U87 cell line", "value": "cannot perform significantly better than the free drug"}, {"measurement": "cell killing compared with free drug", "setting": "U87 cells [1]", "value": "can kill the cells more effectively than the free drug"}, {"measurement": "internalization (Rhodamine B signal)", "setting": "U87", "value": "some internalization is occurring"}]}, {"compound": "CCN(CC)c1ccc2c(-c3ccccc3C(=O)N(C)CCCC(=O)N[C@H]3Cc4cn(nn4)CCCC[C@@H](C(N)=O)NC(=O)[C@H](CO)NC(=O)[C@H](Cc4ccc(O)cc4)NC(=O)[C@H](Cc4ccc(O)cc4)NC(=O)[C@H](CO)NC(=O)[C@H](Cc4ccc(O)cc4)NC3=O)c3ccc(=[N+](CC)CC)cc-3oc2c1", "note": "[RB-EPP6, RB-cy(YSYYS)] (RhodamineB-[NMeGABA][Pra]YSYYS[Lys(N3)]-NH2; triazole 2-8; N-terminus and C-terminus assumed)", "values": [{"measurement": "colocalization with mEmerald-caveolin", "setting": "U87 cells [2]", "value": "significantly overlapped"}, {"measurement": "colocalization with mEmerald-clathrin", "setting": "U87 cells [2]", "value": "no overlap"}, {"measurement": "interaction with lipid components", "setting": "Lipid binding assay", "value": "no appreciable interaction; also recorded: no significant interaction"}, {"measurement": "uptake at low temperature", "setting": "U87 cells [3]", "value": "no RB-EPP6 uptake; also recorded: no fluorescence signal in the cells"}, {"measurement": "uptake after CRISPR caveolin", "setting": "U87 cells [4]", "value": "decreased"}, {"measurement": "Papp relative to RB-TAT", "setting": "MDCK cells", "value": "more than twice that of RB-TAT"}, {"measurement": "hydrophobicity (octanol partitioning)", "setting": "[5]", "value": "hydrophilic"}, {"measurement": "ability to enter the cells (intracellular fluorescence)", "setting": "U87 cells [6]", "value": "best performing"}, {"measurement": "Papp", "setting": "[7]", "value": 5.25, "unit": "×10⁻⁶ cm/s"}, {"measurement": "localization in early endosomes (Rab5)", "setting": "U87 cells [8]; EGFP-Rab5, after 15-min", "value": "appeared in distinct Rab5-coated vesicles"}, {"measurement": "trafficking into mitochondria or endoplasmic reticulum", "setting": "U87 cells [8]; MitoTracker, ERTracker", "value": "did not traffic into the mitochondria or the endoplasmic reticulum"}, {"measurement": "localization in lysosomes (LysoTracker)", "setting": "U87 cells [8]; after 3 hours", "value": "some RB-EPP6 signals appeared in lysosomes"}, {"measurement": "retention in Rab7a+ vesicles", "setting": "U87 cells [8]; after 4 hours", "value": "a significant amount of RB-EPP6 remained inside Rab7a+vesicles"}, {"measurement": "remaining intracellular signal", "setting": "U87 cells [8]; after 24 hours", "value": "some signals remained"}, {"measurement": "endosomal escape to cytosol", "setting": "U87 cells [8]; imaging", "value": "could escape from the endosomes and enter the cytosol"}, {"measurement": "time to traffic into late endosomes", "setting": "U87 cells [8]; mEmerald-Rab7a", "value": "≤ 30", "unit": "min"}, {"measurement": "internalization (Rhodamine B signal)", "setting": "U87", "value": "much higher signals"}]}]}
